According to US20170326106A1, “TREATMENT OF AGE RELATED MACULAR DEGENERATION WITH A SMALL ACTIVE CHOROIDAL NEOVASCULARIZATION LESION” (BAYER HEALTHCARE LLC, priority 2014, published 2017):

How the values were obtained:
Assay type in all cases: in vivo, human
[1] = tested on: Chinese subjects with age-related neovascular or wet age-related macular degeneration; assay: Randomized double-blind clinical study, BCVA of the study eye by ETDRS
Method: (§1) A total of 304 Chinese subjects with age-related neovascular or wet age-related macular degeneration were enrolled in a randomized, double-blind clinical study to assess the efficacy of intravitreal (IVT) administrated aflibercept compared with V®-PDT on the mean change in BCVA (Best corrected visual acuity) from baseline to Week 28. BCVA of the study eye was assessed according to the standard procedures developed for the ETDRS (Early Treatment Diabetic Retinopathy Study) adapted for Age Related Eye Disease Study (AREDS). The key inclusion criteria were as follows: • Signed and dated written ICF. • Men and women ≧50 years of age. • Active predominantly classic, subfoveal choroidal neovascularization (CNV) lesions secondary to AMD, including juxtafoveal lesions that affect the fovea, as evidenced by fluorescein angiography (FA), in the study eye. • The area of the CNV had to occupy at least 50% of the total lesion. • ETDRS best corrected visual acuity (BCVA) of 73 to 25 letters in the study eye (Snellen activity equivalent of 20/40 to 20/320 in the study eye).
(§2) The following key exclusion criteria applied for the study eye: • Total lesion size is greater than 12 disc areas (30.5 mm^2, including blood, scars and neovascularization), as assessed by FA • Sub-retinal hemorrhages that is >50% of the total lesion area, or if the blood is under the fovea and is 1 or more disc areas in size. (If the blood is under the fovea, then the fovea must be surrounded by 270 degrees by visible CNV.) • Presence of CNV with an origin other than wAMD. History or clinical evidence of diabetic retinopathy, diabetic macular edema or any retinal vascular disease other than wAMD. Particular attention should be made to exclude subjects with polypoidal choroidal vasculopathy (PCV). • Presence of scar, fibrosis, or atrophy involving the center of the fovea that indicates substantial irreversible vision loss. • Presence of retinal pigment epithelial tears or rips involving the macula.
Eligible patients were randomized 3:1 to receive aflibercept (VTE) 2Q8 or V®-PDT (228 VTE+76 PDT). 194 patients with active CNV lesions >=50% (147 VTE2Q8+47 PDT) and 106 patients with active CNV lesions <50% (78 VTE2Q8+28 PDT) were included. The lesion size was determined by a central reading center based on the MPS protocol [Macular Photocoagulation Study Group, Arch Ophthalmol 1991, 109:1242-1257]. The active CNV size, the area of CNV (mm^2) as well as the total lesion size was measured using the FA. The central retinal thickness was determined by optical coherence tomography. In the VTE2Q8 group patients were treated with 2 mg (0.05 mL) aflibercept administered intravitreally at baseline, week 4, 8, 16, 24, 32, 40 and 48. In the PDT group V®-PDT was performed at baseline and potential PDT retreatment according to the guidelines for the use of PDT treatment in wAMD [Verteporfin Roundtable Participants, Retina. 2005; 25(2):119-34] were performed at week 12 and 24. At Week 28, after assessment of the primary and secondary endpoints, subjects in the PDT→VEGF Trap-Eye group received an IVT injection of 2.0 mg VEGF Trap-Eye, followed by additional 2.0 mg VEGF Trap-Eye injections at Weeks 32, 36, 40, and 48.

[2] = tested on: Chinese subjects with age-related neovascular or wet age-related macular degeneration; assay: Same clinical study, central retinal thickness by optical coherence tomography
Method: as §1, §2
(§3) Eligible patients were randomized 3:1 to receive aflibercept (VTE) 2Q8 or V®-PDT (228 VTE+76 PDT). 194 patients with active CNV lesions >=50% (147 VTE2Q8+47 PDT) and 106 patients with active CNV lesions <50% (78 VTE2Q8+28 PDT) were included. The lesion size was determined by a central reading center based on the MPS protocol [Macular Photocoagulation Study Group, Arch Ophthalmol 1991, 109:1242-1257]. The active CNV size, the area of CNV (mm^2) as well as the total lesion size was measured using the FA. The central retinal thickness was determined by optical coherence tomography. In the VTE2Q8 group patients were treated with 2 mg (0.05 mL) aflibercept administered intravitreally at baseline, week 4, 8, 16, 24, 32, 40 and 48. […]

[3] = tested on: Chinese subjects with age-related neovascular or wet age-related macular degeneration; assay: Same clinical study, CNV lesion size by fluorescein angiography (MPS protocol)
Method: as §1, §2, §3

[4] = active CNV lesion <50%, week 28
[5] = active CNV lesion <50%, week 52, PDT group on VEGF Trap-Eye from week 28
[6] = active CNV lesion >=50%, week 28
[7] = active CNV lesion >=50%, week 52, PDT group on VEGF Trap-Eye from week 28

Question: Which results are given for Aflibercept [VTE2Q8]?
Answer: Mean change of BCVA ([1]; active CNV lesion <50% of total lesion size, week 28, from baseline): 16.7 letters; Mean change of BCVA ([1]; active CNV lesion <50% of total lesion size, week 28, from baseline, listed as aflibercept): 16.7 (−21 to 59) letters; Mean change of BCVA ([1]; active CNV lesion <50% of total lesion size, week 52, from baseline, PDT group received IVT 2.0 mg VEGF Trap-Eye from week 28): 18.1 letters; Proportion of patients who gained 5 or more letters [1, 4]: 85.9%; Proportion of patients who gained 10 or more letters [1, 4]: 73.1%; Proportion of patients who gained 15 or more letters [1, 4]: 57.7%; Proportion of patients who lost 5 or more letters [1, 4]: 5.1%; Proportion of patients who lost 10 or more letters [1, 4]: 3.8%; Proportion of patients who lost 15 or more letters [1, 4]: 2.6%; Proportion of patients who maintained vision (letter loss <15 letters) [1, 4]: 97.4%; Proportion of patients who gained 5 or more letters [1, 5]: 88.5%; Proportion of patients who gained 10 or more letters [1, 5]: 78.2%; Proportion of patients who gained 15 or more letters [1, 5]: 69.2%; Proportion of patients who lost 5 or more letters [1, 5]: 6.4%; Proportion of patients who lost 10 or more letters [1, 5]: 3.8%; Proportion of patients who lost 15 or more letters [1, 5]: 3.8%; Proportion of patients who maintained vision (letter loss <15 letters) [1, 5]: 96.2%; Mean change of BCVA ([1]; active CNV lesion >=50% of total lesion size, week 28, from baseline): 12.7 letters; Mean change of BCVA ([1]; active CNV lesion >=50% of total lesion size, week 28, from baseline, listed as aflibercept): 12.7 (−29 to 40) letters; Mean change of BCVA ([1]; active CNV lesion >=50% of total lesion size, week 52, from baseline, PDT group received IVT 2.0 mg VEGF Trap-Eye from week 28): 14.0 letters; Proportion of patients who gained 5 or more letters [1, 6]: 77.6%; Proportion of patients who gained 10 or more letters [1, 6]: 66.7%; Proportion of patients who gained 15 or more letters [1, 6]: 45.6%; Proportion of patients who lost 5 or more letters [1, 6]: 6.8%; Proportion of patients who lost 10 or more letters [1, 6]: 2.7%; Proportion of patients who lost 15 or more letters [1, 6]: 0.7%; Proportion of patients who maintained vision (letter loss <15 letters) [1, 6]: 99.3%; Proportion of patients who gained 5 or more letters [1, 7]: 78.9%; Proportion of patients who gained 10 or more letters [1, 7]: 67.3%; Proportion of patients who gained 15 or more letters [1, 7]: 53.1%; Proportion of patients who lost 5 or more letters [1, 7]: 8.2%; Proportion of patients who lost 10 or more letters [1, 7]: 4.1%; Proportion of patients who lost 15 or more letters [1, 7]: 2.0%; Proportion of patients who maintained vision (letter loss <15 letters) [1, 7]: 98.0%; mean change from baseline BCVA letter score ([1]; whole study population irrespective of the active CNV lesion size, week 28, range in brackets): 14.0 (−29 to 59); Mean change in central retinal thickness [2, 4]: −180.6 um; Mean change in central retinal thickness [2, 5]: −185.5 um; Mean change in central retinal thickness [2, 6]: −180.4 um; Mean change in central retinal thickness [2, 7]: −192.1 um; Mean change in CNV lesion size [3, 4]: −0.688 mm^2; Mean change in CNV lesion size [3, 5]: −0.688 mm^2; Mean change in CNV lesion size [3, 6]: −1.009 mm^2; Mean change in CNV lesion size [3, 7]: −1.173 mm^2
